Counter-ions that a name gives are not always drawn. Like-named read-outs stand apart in the source and are kept apart here.
How the values were obtained:
NMDA receptor [1] = experiment: Patch clamp: NMDA-induced inward currents in cultured hippocampal neurones; type: cell-based, rat
Procedure: Hippocampi were obtained from rat embryos (E20 to E21) and were then transferred to calcium and magnesium free Hank's buffered salt solution (Gibco) on ice. Cells were mechanically dissociated in 0.05% DNAase/0.3% ovomucoid (Sigma) following an 8 minute pre-incubation with 0.66% trypsin/0.1% DNAase (Sigma). The dissociated cells were then centrifuged at 18 ×g for 10 minutes, re-suspended in minimum essential medium (Gibco) and plated at a density of 150,000 cells cm^-2 onto poly-L-lysine (Sigma)-precoated plastic petri dishes (Falcon). The cells were nourished with NaHCO3 /HEPES-buffered minimum essential medium supplemented with 5% fetal calf serum and 5% horse serum (Gibco) and incubated at 37° C. with 5% CO2 at 95% humidity. […] Thereafter the medium was exchanged partially twice weekly.
Patch clamp recordings were made from these neurones with polished glass electrodes (4-6 m.OMEGA.) in the whole cell mode at room temperature (20-22° C.) with the aid of an EPC-7 amplifier (List). Test substances were applied by switching channels of a custom-made fast superfusion system with a common outflow (10-20 ms exchange times). The contents of the intracellular solution were as follows (mM): CsCl (120), TEACl (20), EGTA (10), MgCl2 (1), CaCl2 -(0.2), glucose (10), ATP(2), cAMP (0.25); pH was adjusted to 7.3 with CsOH or HC1. The extracellular solutions had the following basic composition (mM): NaCl (140), KCl (3), CaCl2 (0.2), glucose (10), HEPES (10), sucrose (4.5), tetrodotoxin (TTX 3*10^-4). Glycine (1 μM) was present in all solutions: a concentration sufficient to cause around 80-85% activation of glycineB receptors. Only results from stable cells were accepted for inclusion in the final analysis, i.e., following recovery of responses to NMDA by at least 75% of their depression by the antagonists tested.
(§1) IC50 s in patch clamp, excitotoxicity, and binding studies were calculated according to the four parameter logistic equation using the Grafit computer program (Erithacus Software, England). Ki value for binding studies were then determined according to Cheng and Prusoff. Binding values presented are means±SEM of 3-5 determinations (each performed in duplicate). […] Pearson product moment correlation analysis (Sigma Stat, Jandel Scientific) was used to compare in vitro potencies and in vivo anticonvulsant activity.

NMDA receptor [2] = experiment: [3H]-(+)-MK-801 binding to rat cortical membranes; details: for Ki: read-out: MK-801 Ki, Table 9, Cheng-Prusoff with Kd for MK-801 of […]; for IC50: read-out: [3H] MK-801 IC50, Table 7, footnote calls the values Ki
Procedure: Male Sprague-Dawley rats (200-250 g) were decapitated and their brains were removed rapidly. The cortex was dissected and homogenized in 20 volumes of ice-cold 0.32 M sucrose using a glass-Teflon homogenizer. The homogenate was centrifuged at 1000 ×g for 10 minutes. The pellet was discarded and the supernatant centrifuged at 20,000 ×g for 20 minutes. The resulting pellet was re-suspended in 20 volumes of distilled water and centrifuged for 20 minutes at 8000 ×g. Then the supernatant and the buffy coat were centrifuged three times (48,000 ×g for 20 minutes) in the presence of 50 mM Tris-HCl, pH 8.0. All centrifugation steps were carried out at 4° C. After resuspension in 5 volumes of 50 mM Tris-HCl, pH 8.0 the membrane suspension was frozen rapidly at -80° C. On the day of assay the membranes were thawed and washed four times by resuspension in 50 mM Tris-HCl, pH 8.0 and centrifugation at 48,000 ×g for 20 minutes. The final pellet was suspended in assay buffer. The amount of protein in the final membrane preparation was determined according to the method of Lowry with some modifications. The final protein concentration used for our studies was between 250-500 μg/ml.
Membranes were re-suspended and incubated in 50 mM Tris-HCl, pH 8.0. […] Incubations were terminated using a Millipore filter system. The samples were rinsed three times with 2.5 ml ice cold assay buffer over glass fiber filters obtained from Schleicher & Schuell under a constant vacuum. Filtration was performed as rapidly as possible. Following separation and rinse, the filters were placed into scintillation liquid (5 ml; Ultima Gold) and radio activity retained on the filters was determined with a conventional liquid scintillation counter (Hewlett Packard, Liquid Scintillation Analyser).
as §1

[3] = Procedure: All animals were kept with water and food ad libitum under a 12 hour light-dark cycle (light on at 6 a.m.) and at a controlled temperature (20±0.5° C.). All e experiments were performed between 10 a.m. and 5 p.m. Tested agents were injected 30 min. i.p. before the induction of convulsions if not stated otherwise (see below). All compounds were dissolved in 0.9% saline.
[4] = Table 7; NMDA 200 μM with glycine 1 μM at -70 mV; read-out: Patch Clamp IC50
[5] = Table 9; NMDA-induced currents; read-out: Patch Clamp IC50
[6] = read-out: Patch Clamp IC50; Table 7; NMDA 200 μM with glycine 1 μM at -70 mV
[7] = read-out: Patch Clamp IC50; Table 9; NMDA-induced currents

SMILES	IC50 (NMDA receptor [1]; [4])	IC50 (NMDA receptor [1]; [5])	Ki (NMDA receptor [2])	IC50 (NMDA receptor [2])	Min Lethality ([3]; mouse, in vivo, ip)	Min Lethality ([3]; i.p., minimal lethal dose)	IC50 (NMDA receptor [1]; [6])	IC50 (NMDA receptor [1]; [7])
C[C@@H]1CC(C)(C)C[C@@](C)(N)C1 (relative stereo) [Mrz 2/607]	13.8 µM	13.8 µM	7.74 µM	8.2 µM	50 mg/kg	–	–	–
CCC[C@@]1(C)C[C@H](C)C[C@@](C)(N)C1 (relative stereo) [Mrz 2/618]	43.7 µM	57.5 µM	24 µM	32.7 µM	> 50 mg/kg	–	–	–
CCC[C@]1(C)C[C@@H](C)C[C@@](C)(N)C1 (relative stereo) [Mrz 2/619]	60.8 µM	60.9 µM	57.8 µM	72.1 µM	> 50 mg/kg	–	–	–
CC[C@@]1(C)C[C@H](C)C[C@@](C)(N)C1 (relative stereo) [Mrz 2/622]	64.8 µM	58.2 µM	13.3 µM	15 µM	50 mg/kg	–	–	–
CC[C@]1(C)C[C@@H](C)C[C@@](C)(N)C1 (relative stereo) [Mrz 2/624]	31 µM	31 µM	15.1 µM	15.4 µM	100 mg/kg	–	–	–
C[C@@H]1CCC[C@@](C)(N)C1 (relative stereo) [Mrz 2/625]	245 µM	245 µM	52.6 µM	46.8 µM	> 70 mg/kg	–	–	–
CCC[C@@H]1CCC[C@@](C)(N)C1 (relative stereo) [Mrz 2/627]	210 µM	150 µM	71 µM	70.3 µM	60 mg/kg	–	–	–
CCC[C@H]1CCC[C@@](C)(N)C1 (relative stereo) [Mrz 2/628]	126 µM	126 µM	49.2 µM	35.6 µM	> 60 mg/kg	–	–	–
CC[C@@H]1CCC[C@@](C)(N)C1 (relative stereo) [Mrz 2/629]	219 µM	219 µM	49.3 µM	39.4 µM	100 mg/kg	–	–	–
CC[C@H]1CCC[C@@](C)(N)C1 (relative stereo) [Mrz 2/630]	> 100 µM	100 µM	49.1 µM	44.3 µM	–	> 30 mg/kg	–	–
C[C@H]1CCC[C@@](C)(N)C1 (relative stereo) [Mrz 2/631]	> 100 µM	> 100 µM	65.3 µM	69.7 µM	–	> 30 mg/kg	–	–
CC[C@H]1CC(C)(C)C[C@@](C)(N)C1 (relative stereo) [Mrz 2/632]	6.4 µM	6.4 µM	2.88 µM	2 µM	> 30 mg/kg	–	–	–
CC[C@@H]1CC(C)(C)C[C@@](C)(N)C1 (relative stereo) [Mrz 2/633]	13.9 µM	13.9 µM	5.18 µM	6.8 µM	108 mg/kg	–	–	–
CCC[C@@H]1CC(C)(C)C[C@](C)(N)C1 (relative stereo) [Mrz 2/634]	10.8 µM	10.8 µM	13.4 µM	15.5 µM	–	> 30 mg/kg	–	–
CCC[C@@H]1CC(C)(C)C[C@@](C)(N)C1 (relative stereo) [Mrz 2/635]	21 µM	21 µM	15 µM	7.8 µM	> 50 mg/kg	–	–	–
C[C@H]1CC(C)(C)C[C@@](C)(N)C1 (relative stereo) [Mrz 2/643]	13.5 µM	13.5 µM	4.66 µM	3.6 µM	> 50 mg/kg	–	–	–
C[C@@H]1C[C@H](C)C[C@@](C)(N)C1 [MRZ 2/680, 1,trans-3,trans-5-Trimethylcyclohexylamine hydrochloride]	–	43 µM	30 µM	–	> 50 mg/kg	–	–	–
C[C@@H]1C[C@H](C)C[C@](C)(N)C1 [MRZ 2/681, 1,cis-3,cis-5-Trimethylcyclohexylamine hydrochloride hydrate]	–	30 µM	19.2 µM	–	> 50 mg/kg	–	–	–
CC[C@H]1CC(C)(C)C[C@](C)(N)C1 [MRZ 2/682, (1R, 5S) trans-3-Ethyl-1,5,5-trimethylcyclohexylamine hydrochloride]	–	3.9 µM	1.99 µM	–	> 50 mg/kg	–	–	–
CC[C@H]1CC(C)(C)C[C@@](C)(N)C1 [MRZ 2/683, (1S, 5S) cis-3-Ethyl-1,5,5-trimethylcyclohexylamine hydrochloride hydrate]	–	4.3 µM	4.44 µM	–	> 50 mg/kg	–	–	–
CC12CC3CC(C)(C1)CC(N)(C3)C2 [Memantine, reference compound]	–	–	2.45 µM	0.7 µM	–	> 108 mg/kg	2.3 µM	2.87 µM
CC1(C)CC(N)CC(C)(C)C1 [Mrz 2/557]	18.5 µM	18.5 µM	19.9 µM	17.6 µM	> 70 mg/kg	–	–	–
CC1(C)CC(C)(C)CC(C)(N)C1 [Mrz 2/579, 1-amino-1,3,3,5,5-pentamethylcyclohexane]	1.3 µM	1.29 µM	1.47 µM	1.9 µM	–	108 mg/kg	–	–
CC1(C)CC(CN)CC(C)(C)C1.Cl [Mrz 2/580, 3,3,5,5-tetramethylcyclohexylmethylamine hydrochloride]	12.9 µM	12.9 µM	17.8 µM	15.9 µM	–	50 mg/kg	–	–
CCC1(N)CC(C)(C)CC(C)(C)C1 [Mrz 2/600, 1-amino-1-ethyl-3,3,5,5-tetramethylcyclohexane]	3.7 µM	3.49 µM	2.28 µM	2.4 µM	–	50 mg/kg	–	–
CCCC1(N)CC(C)(C)CC(C)(C)C1 [Mrz 2/601, 1-amino-1-propyl-3,3,5,5-tetramethylcyclohexane]	–	–	8.09 µM	7.4 µM	–	50 mg/kg	10.5 µM	10 µM
CCCC1(C)CC(C)(C)CC(C)(N)C1 (centres unmarked) [Mrz 2/614]	13.9 µM	13.9 µM	13.6 µM	13.6 µM	> 50 mg/kg	–	–	–
CCC1(C)CC(C)(C)CC(C)(N)C1 (centres unmarked) [Mrz 2/615, 1-amino-1,3,5,5-tetramethyl-3-ethylcyclohexane]	2.9 µM	2.9 µM	2.42 µM	2.5 µM	–	> 50 mg/kg	–	–
CN(C)C1(C)CC(C)(C)CC(C)(C)C1 [Mrz 2/642]	–	–	12.7 µM	10.2 µM	–	–	42.5 µM	42.5 µM
CC(C)(N)CC1CC(C)(C)CC(C)(C)C1 [Mrz 2/645]	20.4 µM	20.4 µM	60.2 µM	85.1 µM	–	–	–	–
